{
  "source": "patent EP4098265A1",
  "about": "(priority 2020, dated 2021)",
  "key": {"[1]": {"tested_on": "HCoV-229E", "experiment": "Anti-HCoV-229E activity in Huh7.5 cells (CPE method)", "type": "cell-based", "details": "Human coronavirus 229E"}, "[2]": {"tested_on": "HCoV-OC43", "experiment": "Anti-HCoV-OC43 activity in MRC-5 cells (CPE method)", "type": "cell-based", "details": "for IC50: Betacoronavirus 1, OC43, MRC5, 0 h"}, "[3]": {"tested_on": "HCT-8 cells", "details": "human"}, "[4]": {"tested_on": "MRC-5 cells", "details": "human"}, "[5]": {"tested_on": "HCoV-OC43", "experiment": "Anti-HCoV-OC43 activity in HCT-8 cells (CPE method)", "type": "cell-based"}, "[6]": {"tested_on": "severe acute respiratory syndrome coronavirus SARS-CoV", "type": "cell-based", "details": "in vitro"}, "[7]": {"tested_on": "human coronavirus NL63(HCoV-NL63)", "type": "cell-based"}, "[8]": {"tested_on": "human coronavirus HKU1", "type": "cell-based"}, "[9]": {"tested_on": "coronaviruses (HCoV-229E and HCoV-OC43)", "experiment": "CPE experiment on coronaviruses, single components compared with carrimycin", "type": "cell-based", "details": "above CPE method"}, "[10]": {"tested_on": "Middle East Respiratory Syndrome Coronavirus (MERS-CoV)", "type": "cell-based", "details": "in vitro"}, "[11]": {"tested_on": "2019-nCoV", "experiment": "Anti-2019-nCoV activity in Vero E6 cells (CPE)", "details": "in words"}, "[12]": {"tested_on": "PI3K/Akt/mTOR pathway", "type": "cell-based"}, "[13]": {"details": "0h: administration at the same time of infection, read-out: IC50, First batch"}, "[14]": {"details": "0h: administration at the same time of infection, read-out: IC50, Second batch"}, "[15]": {"details": "2h: administration 2 hours after infection, read-out: IC50, First batch"}, "[16]": {"details": "2h: administration 2 hours after infection, read-out: IC50, Second batch"}},
  "note": "Where two headings read alike, the source gives them in different places.",
  "data": [
    {"compound": "NC(=O)c1ncn([C@@H]2O[C@H](CO)[C@@H](O)[C@H]2O)n1", "note": "[RBV, Ribavirin]", "values": [
      {"measurement": "IC50", "setting": "[1]; [13]", "result": 6.42, "unit": "µg/mL"},
      {"measurement": "IC50", "setting": "[1]; 0h: administration at the same time of infection, read-out: IC50, Mean value", "result": "7.06 ± 0.91", "unit": "µg/mL"},
      {"measurement": "IC50", "setting": "[1]; [14]", "result": 7.7, "unit": "µg/mL"},
      {"measurement": "IC50", "setting": "[1]; [15]", "result": 7.7, "unit": "µg/mL"},
      {"measurement": "IC50", "setting": "[1]; [16]", "result": 4.77, "unit": "µg/mL"},
      {"measurement": "IC50", "setting": "[2]", "result": 63.8, "unit": "µg/mL"},
      {"measurement": "TC50", "setting": "[3]", "result": ">100", "unit": "µg/mL"},
      {"measurement": "TC50", "setting": "[4]", "result": ">100", "unit": "µg/mL"},
      {"measurement": "IC50", "setting": "[5]; Betacoronavirus 1, OC43, HCT-8, 0 h", "result": 11.1, "unit": "µg/mL"}
    ]},
    {"compound": "CC[C@H]1OC(=O)[C@H](C)[C@@H](O[C@H]2C[C@@](C)(OC)[C@@H](O)[C@H](C)O2)[C@H](C)[C@@H](O[C@@H]2O[C@H](C)C[C@H](N(C)C)[C@H]2O)[C@](C)(O)C[C@@H](C)CN(C)[C@H](C)[C@@H](O)[C@]1(C)O", "note": "[Azithromycin]", "values": [
      {"measurement": "IC50", "setting": "[1]; [13]", "result": 14.3, "unit": "µg/mL"},
      {"measurement": "IC50", "setting": "[1]; [14]", "result": 19.2, "unit": "µg/mL"},
      {"measurement": "IC50", "setting": "[1]; [15]", "result": 14.3, "unit": "µg/mL"},
      {"measurement": "IC50", "setting": "[1]; [16]", "result": 4.77, "unit": "µg/mL"},
      {"measurement": "IC50", "setting": "[2]", "result": "> 11.1", "unit": "µg/mL"},
      {"measurement": "inhibitory effect on the HCoV-OC43", "setting": "[2]; MRC-5 cells, 0h administration, in words", "result": "no inhibitory effect"},
      {"measurement": "TC50", "setting": "[3]", "result": ">100", "unit": "µg/mL"},
      {"measurement": "TC50", "setting": "[4]", "result": 48.07, "unit": "µg/mL"},
      {"measurement": "IC50", "setting": "[5]; Betacoronavirus 1, OC43, HCT-8 cells, 0h administration, read-out: IC50", "result": "> 100", "unit": "µg/mL"},
      {"measurement": "inhibitory effect on the HCoV-OC43", "setting": "[5]; HCT-8 cells, 0h administration, in words", "result": "no inhibitory effect"}
    ]},
    {"compound": "CCC(=O)O[C@@H]1CC(=O)O[C@H](C)C/C=C/C=C/[C@H](O[C@H]2CC[C@H](N(C)C)[C@@H](C)O2)[C@H](C)C[C@H](CC=O)[C@H](O[C@@H]2O[C@H](C)[C@@H](O[C@H]3C[C@@](C)(O)[C@@H](OC(=O)CC(C)C)[C@H](C)O3)[C@H](N(C)C)[C@H]2O)[C@H]1OC", "note": "[isovalerylspiramycin III]", "values": [
      {"measurement": "inhibition activity compared with ribavirin or azithromycin", "setting": "[6]", "result": "higher than the inhibition activity of ribavirin or azithromycin"},
      {"measurement": "inhibition activity compared with ribavirin or azithromycin", "setting": "[7]", "result": "higher than the inhibition activity of ribavirin or azithromycin"},
      {"measurement": "inhibition activity compared with ribavirin or azithromycin", "setting": "[8]", "result": "higher than the inhibition activity of ribavirin or azithromycin"},
      {"measurement": "inhibition activity compared with carrimycin", "setting": "[9]", "result": "close to the inhibition activities of carrimycin"},
      {"measurement": "inhibition activity compared with ribavirin or azithromycin", "setting": "[10]", "result": "higher than the inhibition activity of ribavirin or azithromycin"},
      {"measurement": "anti-2109-nCoV activity in vitro", "setting": "[11]", "result": "anti-2109-nCoV activities in vitro"},
      {"measurement": "anti-inflammatory and immunomodulatory effects on PI3K/Akt/mTOR pathway", "setting": "[12]", "result": "inhibit the PI3K/Akt/mTOR pathway"}
    ]},
    {"compound": "CO[C@@H]1[C@@H](O[C@@H]2O[C@H](C)[C@@H](O[C@H]3C[C@@](C)(O)[C@@H](OC(=O)CC(C)C)[C@H](C)O3)[C@H](N(C)C)[C@H]2O)[C@@H](CC=O)C[C@@H](C)[C@@H](O[C@H]2CC[C@H](N(C)C)[C@@H](C)O2)/C=C/C=C/C[C@@H](C)OC(=O)C[C@H]1O", "note": "[Isovalerylspiramycin I, isovalerylspiramycin I]", "values": [
      {"measurement": "inhibition activity compared with ribavirin or azithromycin", "setting": "[6]", "result": "higher than the inhibition activity of ribavirin or azithromycin"},
      {"measurement": "inhibition activity compared with ribavirin or azithromycin", "setting": "[7]", "result": "higher than the inhibition activity of ribavirin or azithromycin"},
      {"measurement": "inhibition activity compared with ribavirin or azithromycin", "setting": "[8]", "result": "higher than the inhibition activity of ribavirin or azithromycin"},
      {"measurement": "inhibition activity compared with carrimycin", "setting": "[9]", "result": "higher than the inhibition activity of carrimycin"},
      {"measurement": "inhibition activity compared with ribavirin or azithromycin", "setting": "[10]", "result": "higher than the inhibition activity of ribavirin or azithromycin"},
      {"measurement": "anti-2109-nCoV activity in vitro", "setting": "[11]", "result": "anti-2109-nCoV activities in vitro"},
      {"measurement": "anti-inflammatory and immunomodulatory effects on PI3K/Akt/mTOR pathway", "setting": "[12]", "result": "inhibit the PI3K/Akt/mTOR pathway"}
    ]},
    {"compound": "isovalerylspiramycin II", "values": [
      {"measurement": "inhibition activity compared with ribavirin or azithromycin", "setting": "[6]", "result": "higher than the inhibition activity of ribavirin or azithromycin"},
      {"measurement": "inhibition activity compared with ribavirin or azithromycin", "setting": "[7]", "result": "higher than the inhibition activity of ribavirin or azithromycin"},
      {"measurement": "inhibition activity compared with ribavirin or azithromycin", "setting": "[8]", "result": "higher than the inhibition activity of ribavirin or azithromycin"},
      {"measurement": "inhibition activity compared with carrimycin", "setting": "[9]", "result": "close to the inhibition activities of carrimycin"},
      {"measurement": "inhibition activity compared with ribavirin or azithromycin", "setting": "[10]", "result": "higher than the inhibition activity of ribavirin or azithromycin"},
      {"measurement": "anti-2109-nCoV activity in vitro", "setting": "[11]", "result": "anti-2109-nCoV activities in vitro"},
      {"measurement": "anti-inflammatory and immunomodulatory effects on PI3K/Akt/mTOR pathway", "setting": "[12]", "result": "inhibit the PI3K/Akt/mTOR pathway"}
    ]}
  ]
}
